Test results reported in article PMC11208146, “Molecular basis for transposase activation by a dedicated AAA+ ATPase” (Nature, 2024).

Experiments:
Assay type in all cases: binding
IstB = biological target: T1, IstB (Geobacillus stearothermophilus, UniProt Q45619); experiment: cryo-EM structure, […] Å; conditions: 5 mM MgCl2, 1 mM ATP, pH 7.5, 60 bp target DNA; eight complete sites at IstB-IstB interfaces
T1 construct: full-length; His6-MBP tag cleaved (PreScission); E. coli BL21 codon-plus (DE3) RIL; pentamer of dimers (decamer) on 60 bp target DNA

[1] = biological target: T2, IstA–IstB–STC holo-transpososome (Geobacillus stearothermophilus, UniProt Q45618+Q45619, Q45619:E167Q, form not given); experiment: cryo-EM structure, […] Å; conditions: assembled with 1 mM ATP, 5 mM MgCl2, pH 7.5, strand-transfer DNA; internal IstB-IstB sites (e.g. 1b)
T2 construct: full-length IstB (His6-MBP cleaved) with full-length IstA (C-terminal MBP-His6 cleaved by TEV), E. coli; in the structure one IstA tetramer, two IstB decamers and strand-transfer DNA, about 1 MDa; IstA Glu209/Tyr213 contact the nucleotide of IstB 1a/1a'

[2] = biological target: T2, IstA–IstB–STC holo-transpososome; experiment: cryo-EM structure, focused refinement of core, […] Å; conditions: assembled with 1 mM ATP, 5 mM MgCl2, pH 7.5, strand-transfer DNA; IstB monomers 1a and 1a' contacting IstA

Row | Compound | cryo-EM structure, 3.2 Å (IstB) | cryo-EM structure, 3.6 Å [1] | cryo-EM structure, focused refinement of core, 3.2 Å [2]
1 | Nc1ncnc2c1ncn2[C@@H]1O[C@H](COP(=O)(O)OP(=O)(O)OP(=O)(O)O)[C@@H](O)[C@H]1O [ATP] | Close inspection of the EM map showed clear density maps for ATP in all binding pockets | other subunits (1b, bound to ATP, shown on the right for comparison) | –
2 | Nc1ncnc2c1ncn2[C@@H]1O[C@H](COP(=O)(O)OP(=O)(O)O)[C@@H](O)[C@H]1O [ADP] | – | – | revealed that the density in these active sites is most consistent with ADP
